We go through 2 molecules from ChEMBL document CHEMBL1155117, “Cyclobranol: a substrate for C25-methyl sterol side chains and potent mechanism-based inactivator of plant sterol methyltransferase” (Bioorg Med Chem Lett, 2008).

Assay [1] deals with Glycine max. Put plainly: Activity of soybean sterol C24-methyltransferase 1.
Assay [2] in a line: Inhibition of soybean sterol C24-methyltransferase 1. Also on record: species or system Glycine max.
Assay [3] in a line: Inhibition of sunflower sterol C24-methyltransferase 1. Also noted: species or system Helianthus annuus.
The test system of assay [4] is Glycine max. Nature of the assay: Ratio of Kcat to Kinact for soybean sterol C24-methyltransferase 1.

As to `CC(C)=CCC[C@@H](C)[C@H]1CC[C@@]2(C)[C@@H]3CC[C@H]4C(C)(C)[C@@H](O)CC[C@@]45C[C@@]35CC[C@]12C`, in the assay on Glycine max [1], the Km – broadly, the concentration of substrate that gives half-maximal velocity – was 30 µM; the kcat (in general, the number of substrate molecules converted per active site and unit of time at saturation) turned out to be 0.001 s⁻¹.

For `CC(C)=C(C)CC[C@@H](C)[C@H]1CC[C@@]2(C)[C@@H]3CC[C@H]4C(C)(C)[C@@H](O)CC[C@@]45C[C@@]35CC[C@]12C` [CYCLOBRANOL], the Ki – broadly, the equilibrium dissociation constant of an inhibitor or competing ligand from its target – in assay [2] was 25 µM; in assay [3], 100 µM. Also, in the assay on Glycine max [1], the Km is 37 µM. In addition, the kcat in the assay on Glycine max [1] worked out at 0.0001 s⁻¹. Further, the Ratio with Glycine max [4] turned out to be 0.04.
